Paper PMC5736709, “Unravelling the specificity and mechanism of sialic acid recognition by the gut symbiont Ruminococcus gnavus” (Nature Communications, 2017)
Several values for one entry are separate records, joined by “and”; a condition that tells them apart may be missing. Equal values may be shown once. Entries after “also recorded” stand apart in the source; their conditions may differ. Read-outs that look alike come from different tables or passages of the source.

Legend:
Parameters in all cases: species or system Ruminococcus gnavus ATCC 29149
RgCBM40 [1] = molecular target: T1, RgCBM40 (Mediterraneibacter gnavus (Ruminococcus gnavus), UniProt A7B557); assay: STD NMR of sialoglycans with RgCBM40 WT; conditions: 1 mM sialoglycan, 50 μM RgCBM40 WT, 288 K; 'exception' = monosaccharides for which binding was not detected
Description: ^1H and ^13C resonance assignment for all the sugars was performed on the bases of 1D ^1H, 2D DQF-COSY, TOCSY, HSQC and NOESY experiments run on the free ligands in unbuffered D2O, pH 7.0. For STD NMR experiments, all the samples consisted of 1 mM sialoglycans and 50 μM RgCBM40 (WT or I95A mutant) in D2O buffer solution of 10 mM Tris-d11 pH 7.8 and 100 mM NaCl (ligand: protein ratio 20:1). An STD pulse sequence that included 2.5 ms and 5 ms trim pulses and a 3 ms spoil gradient was used. Saturation was achieved applying a train of 50 ms Gaussian pulses (0.40 mW) on the f2 channel, at 0.60 p.p.m. (on-resonance experiments) and 40 p.p.m. (off-resonance experiments). The broad protein signals were removed using a 40 ms spinlock (T1ρ) filter. All the experiments were recorded at ^1H frequency of 800.23 MHz on a Bruker Avance III spectrometer equipped with a 5 mm probe TXI 800 MHz H-C/N-D-05 Z BTO, at 288 K. For all the sialoglycans in the presence of RgCBM40, an STD experiment with a saturation time of 2 s and a relaxation delay of 5 s was performed, as a first test for binding. For the confirmed binders, the STD NMR experiments were carried out at different saturation times (0.5, 1, 2, 3, 4 and 5 s) with 1 K scans and relaxation delay of 5 s, in order to obtain the binding epitope mapping. The resulting build-up curves for each proton were fitted mathematically to a mono-exponential equation (y = a×[1-exp(b×x)]), from which the initial slopes (a×b) were obtained. For each ligand, the binding epitope mapping was obtained by dividing the initial slopes by the one of the H7 proton of the corresponding sialic acid ring, to which an arbitrary value of 100% was assigned. This normalisation of the STD values allows the comparison across all the sialoglycans.

RgCBM40 [2] = molecular target: T1, RgCBM40; assay: ITC of sialoglycans binding to RgCBM40 wild type; conditions: RgCBM40 WT; for Kd: ITC in PBS, 115-230 μM protein in cell, syringe 10 mM sugar (25 mM for Neu5Ac), * = estimate only, Kd too high to determine
Description: Isothermal titration calorimetry (ITC) experiments were performed using the PEAQ-ITC system (Malvern, Malvern, UK) with a cell volume of 200 µl. Prior to titration protein samples were exhaustively dialysed into PBS. The ligand was dissolved in the dialysis buffer. The cell protein concentration was 115 µM (except for mutant I95A where it was 173 µM and the wild-type interaction with 6′SL where it was 230 µM) and the syringe ligand concentration was 10 mM (25 mM for Neu5Ac). Controls with titrant (sugar) injected into buffer only were subtracted from the data. Analysis was performed using Malvern software, using a single-binding site model. The stoichiometry of binding sites was set to 1.0 as this was evident from the crystal structure. Quantitative and most qualitative experiments were carried out in triplicate.

RgGH33 D282A = assay: Sialoglycan microarray binding of RgGH33 D282A; conditions: RgGH33 D282A at 200 µg ml^−1
Description: (§1) Glycan microarrays were fabricated using epoxide-derivatized slides as previously described. Printed glycan microarray slides were blocked by ethanolamine, washed and dried. Slides were then fitted in a multi-well microarray hybridisation cassette (AHC4X8S, ArrayIt, Sunnyvale, CA, USA) to divide into 8 subarrays. The subarrays were blocked with ovalbumin (1% w/v) in PBS (pH 7.4) for 1 h at room temperature, with gentle shaking. Subsequently, the blocking solution was removed and diluted protein samples of RgCBM40 and RgGH33 D282A with various concentrations were added to each subarray. After incubating the samples for 2 h at room temperature with gentle shaking, the slides were washed. Diluted anti-His-HiLyte Flour 555 antibodies in PBS were added to the subarrays, incubated for 1 h at room temperature, washed and dried. The microarray slides were scanned by Genepix 4000B microarray scanner (Molecular Devices Corp., Union City, CA, USA). The data analysis was performed using Genepix Pro 7.0 analysis software (Molecular Devices Corp.). It is important to note that glycans on the array with sialic acid O-acetyl groups undergo gradual losses of these labile ester groups. Therefore, definitive conclusions about 9-O-acetylation are only possible in instances wherein binding is exclusively to the O-acetylated sialoglycan spot, and not to the corresponding non-O-acetylated spot.

RgCBM40 [3] = molecular target: T1, RgCBM40; assay: Sialoglycan microarray binding of RgCBM40; conditions: for Binding of RgCBM40 on sialoglycan microarray: RgCBM40 at 20 µg ml^−1; for Binding intensity on sialoglycan microarray, fold less: RgCBM40, βR1-linked glycans
Description: as §1

T1 sequence (A7B557 entry or part of it): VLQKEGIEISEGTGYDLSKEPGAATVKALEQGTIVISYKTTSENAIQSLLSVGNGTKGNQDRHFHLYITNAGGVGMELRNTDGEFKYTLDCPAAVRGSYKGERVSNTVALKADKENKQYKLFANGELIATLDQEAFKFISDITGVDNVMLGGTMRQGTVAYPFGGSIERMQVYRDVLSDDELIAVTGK

## CC(=O)N[C@H]1C2OC(C(=O)O)(C[C@@H]1O)O[C@@H]2[C@H](O)CO (stereo partly drawn) [2,7-anhydro-Neu5Ac]
RgCBM40 [1]
  Binding to RgCBM40 detected by STD NMR: exception

## CC(=O)NC1C(O)CC(OC2C(O)C(O)OC(CO)C2O)(C(=O)O)OC1C(O)C(O)CO (stereo not drawn) [3′SGal, Neu5Acα3Gal]
RgCBM40 [1]
  Binding to RgCBM40 detected by STD NMR: detected

## O=C(CO)N[C@H]1[C@H]([C@H](O)[C@H](O)CO)O[C@@](O[C@H]2[C@@H](O)[C@@H](CO)O[C@@H](O[C@H]3[C@H](O)[C@@H](O)C(O)O[C@@H]3CO)[C@@H]2O)(C(=O)O)C[C@@H]1O (stereo partly drawn) [3′SLGc, Neu5Gcα3Lac]
RgCBM40 [2]; Kd
  Kd: 2.69 mM and ~3 mM
RgCBM40 [1]
  Binding to RgCBM40 detected by STD NMR: detected

## CC(=O)N[C@H]1[C@H]([C@H](O)[C@H](O)CO)O[C@@](O[C@H]2[C@@H](O)[C@@H](CO)O[C@@H](O[C@H]3[C@H](O)[C@@H](NC(C)=O)C(O)O[C@@H]3CO)[C@@H]2O)(C(=O)O)C[C@@H]1O (stereo partly drawn) [3′SLN, Neu5Acα3LacNAcβ]
RgCBM40 [1]
  Binding to RgCBM40 detected by STD NMR: detected
RgGH33 D282A
  Binding of RgGH33 D282A on sialoglycan microarray: interacted weakly

## CC(=O)N[C@H]1[C@H]([C@H](O)[C@H](O)CO)OC(OC[C@H]2OC(O)[C@H](O)[C@@H](O)[C@H]2O)(C(=O)O)C[C@@H]1O (stereo partly drawn) [6′SGal, Neu5Acα6 Gal]
RgCBM40 [1]
  Binding to RgCBM40 detected by STD NMR: detected

## O=C(CO)N[C@H]1[C@H]([C@H](O)[C@H](O)CO)O[C@@](OC[C@H]2O[C@@H](O[C@H]3[C@H](O)[C@@H](O)C(O)O[C@@H]3CO)[C@H](O)[C@@H](O)[C@H]2O)(C(=O)O)C[C@@H]1O (stereo partly drawn) [6′SLGc, Neu5Gcα6Lac]
RgCBM40 [2]; Kd
  Kd: ~11 mM and > 10 mM
RgCBM40 [1]
  Binding to RgCBM40 detected by STD NMR: detected

## CC(=O)N[C@H]1[C@H]([C@H](O)[C@H](O)CO)O[C@](OC[C@H]2O[C@@H](O[C@H]3[C@H](O)[C@@H](NC(C)=O)C(O)O[C@@H]3CO)[C@H](O)[C@@H](O)[C@H]2O)(C(=O)O)C[C@@H]1O (stereo partly drawn) [6′SLN, Neu5Acα6LacNAc]
RgCBM40 [1]
  Binding to RgCBM40 detected by STD NMR: detected

## CC(=O)N[C@H]1[C@H]([C@H](O)[C@H](O)COC(C)=O)O[C@@](O[C@H]2[C@@H](O)[C@@H](CO)O[C@@H](OCCCN=[N+]=[N-])[C@@H]2O)(C(=O)O)C[C@@H]1O [Neu5,9Ac2α3GalβR1]
RgCBM40 [3]
  Binding of RgCBM40 on sialoglycan microarray: highest binding

## O=C(CO)N[C@H]1[C@H]([C@H](O)[C@H](O)CO)OC(O)(C(=O)O)C[C@@H]1O (stereo partly drawn) [Neu5Gc]
RgCBM40 [2]
  Binding to RgCBM40 (in words): weak binding
RgCBM40 [2]; read-out: Kd
  Kd: ~21 mM and ~20 mM
RgCBM40 [1]
  Binding to RgCBM40 detected by STD NMR: exception; also recorded: no interaction was observed

## CC(=O)NC1C(O)CC(OC2C(O)C(CO)OC(OC3C(O)C(CO)OC(O)C3NC(C)=O)C2O)(C(=O)O)OC1C(O)C(O)CO (stereo not drawn) [STF, Neu5Acα3Galβ3GalNAc]
RgGH33 D282A
  Binding of RgGH33 D282A on sialoglycan microarray: interacted weakly

## CC(=O)NC1C(O)CC(OC2C(O)C(CO)OC(OC3C(O)C(CO)OC(OCCCN=[N+]=[N-])C3NC(C)=O)C2O)(C(=O)O)OC1C(O)C(O)CO (stereo not drawn) [STFαOC3H6N3]
RgCBM40 [1]
  Binding to RgCBM40 detected by STD NMR: detected

## Neu5,9Ac2-TF9Ac2α2-3TF
RgCBM40 [3]
  Binding of RgCBM40 on sialoglycan microarray: bound

## Neu5,9Ac2α2-6Tn
RgCBM40 [3]
  Binding of RgCBM40 on sialoglycan microarray: bound

## Neu5Acα2-3TF
RgCBM40 [3]
  Binding of RgCBM40 on sialoglycan microarray: bound

## Neu5Acα2-6Tn
RgCBM40 [3]
  Binding of RgCBM40 on sialoglycan microarray: bound

## Neu5Acα3Galβ3GalNAcβ3Lac
RgGH33 D282A
  Binding of RgGH33 D282A on sialoglycan microarray: interacted weakly

## Neu5Acα3Lacβ [GM3]
RgGH33 D282A
  Binding of RgGH33 D282A on sialoglycan microarray: interacted weakly

## Neu5Acα6GalαOC3H6N3 [Neu5Ac-STn]
RgCBM40 [1]
  Binding to RgCBM40 detected by STD NMR: detected

## Neu5Gc9Acα3Galβ3GalNAcβR1 [Neu5Gc9Ac-TF]
RgCBM40 [3]
  Binding intensity on sialoglycan microarray, fold less: 5–10 fold

## Neu5Gcα3Galβ3GalNAcβR1 [Neu5Gc-TF]
RgCBM40 [3]
  Binding intensity on sialoglycan microarray, fold less: 5–10 fold

## Neu5Gcα6GalαOC3H6N3 [Neu5Gc-STn]
RgCBM40 [1]
  Binding to RgCBM40 detected by STD NMR: detected

## α2-3-sialylated Lewis X [3′SLX]
RgCBM40 [3]
  Binding of RgCBM40 on sialoglycan microarray: bound
